Experimental findings from patent US20010007862A1, “METHOD OF SELECTING A SALT FOR MAKING AN INCLUSION COMPLEX” (priority 1996, published 2001) are described below.

The nature of the data set: Equilibrium solubility of ziprasidone salts in 40% (w/v) aqueous SBECD. The following applies: 40% SBECD. An excerpt:
Many different experimental protocols can be envisioned and implemented.

Counter-ions that a name gives are not always drawn.

In the case of `O=C1Cc2cc(CCN3CCN(c4nsc5ccccc45)CC3)c(Cl)cc2N1` [mesylate, Ziprasidone Mesylate], the “Rank of solubility among salt candidates and cyclodextrin solutions tested” value is on record as “highest solubility”.
